Target: T1, epidermal growth factor receptor (EGFR) (Homo sapiens, UniProt P00533)
T1 construct: extracellular domain
Test: SPR (Biacore S200, EGFR amine-coupled to CM5 chip, […] model); also BLI (Octet RED96) at […]
Type: binding

T1 sequence (P00533 25-645 limits assumed): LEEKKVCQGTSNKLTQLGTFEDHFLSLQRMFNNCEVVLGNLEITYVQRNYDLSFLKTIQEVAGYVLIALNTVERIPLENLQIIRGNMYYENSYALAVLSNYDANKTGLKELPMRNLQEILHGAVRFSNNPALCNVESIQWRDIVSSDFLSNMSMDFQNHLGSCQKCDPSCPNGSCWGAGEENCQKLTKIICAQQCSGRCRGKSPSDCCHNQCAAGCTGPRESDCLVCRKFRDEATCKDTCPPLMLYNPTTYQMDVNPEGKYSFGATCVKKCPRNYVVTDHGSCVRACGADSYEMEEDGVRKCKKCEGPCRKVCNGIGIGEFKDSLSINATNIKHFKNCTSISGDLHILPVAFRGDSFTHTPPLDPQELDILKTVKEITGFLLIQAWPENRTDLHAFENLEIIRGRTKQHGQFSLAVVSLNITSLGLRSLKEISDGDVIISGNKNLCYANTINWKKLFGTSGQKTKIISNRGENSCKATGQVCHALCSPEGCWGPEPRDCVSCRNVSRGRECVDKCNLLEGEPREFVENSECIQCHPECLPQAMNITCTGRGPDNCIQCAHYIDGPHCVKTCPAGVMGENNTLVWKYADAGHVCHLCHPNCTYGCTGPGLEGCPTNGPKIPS

`O=C(O[C@@H]1Cc2c(O)cc(O)cc2O[C@@H]1c1cc(O)c(O)c(O)c1-c1c([C@H]2Oc3cc(O)cc(O)c3C[C@H]2OC(=O)c2cc(O)c(O)c(O)c2)cc(O)c(O)c1O)c1cc(O)c(O)c(O)c1` [compound 3, theasinensin A] gave a Kd of 7.14 µM.
